Source: ChEMBL document CHEMBL1201862, “PubChem BioAssay data set” (2004)
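All cell lines were grown in 96-well plates and treated with compound for 48 hours. GI50: concentration for 50% inhibition of growth.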 Activity calls are given as the source filed them. No stated cut-off is given here; in the data, active = GI50 up to about 1.1 µM and inactive = higher. Where a SMILES comes first, the peptide text is derived from it. The star is where a group is joined. Fmoc = O=C(OCC1c2ccccc2-c2ccccc21)*; OtBu = CC(C)(C)O*

Columns and labels:
Test in all cases: DTP human tumour cell line panel, 48 h
[1] = test system: MDA-MB-435
[2] = test system: SK-MEL-28
[3] = test system: UACC-257
[4] = test system: NCI-H522
[5] = test system: BT-549
[6] = test system: OVCAR-5
[7] = test system: DU-145
[8] = test system: Hs-578T
[9] = test system: A498
[10] = test system: SN12C
[11] = test system: EKVX
[12] = test system: 786-0
[13] = test system: SK-MEL-2
[14] = test system: HCT-15
[15] = test system: UACC-62
[16] = test system: SK-OV-3
[17] = test system: MOLT-4
[18] = test system: U-251
[19] = test system: HOP-92

SMILES	GI50 [1]	GI50 [2]	GI50 [3]	GI50 [4]	GI50 [5]	GI50 [6]	GI50 [7]	GI50 [8]	GI50 [9]	GI50 [10]	GI50 [11]	GI50 [12]	GI50 [13]	GI50 [14]	GI50 [15]	GI50 [16]	GI50 [17]	GI50 [18]	GI50 [19]
CSC1=N/C(=C\c2ccco2)C(=O)N1CN1CCOCC1	> 62.2 µM (inactive)	> 71.6 µM (inactive)	29.7 µM (inactive)	> 100 µM (inactive)	19.4 µM (inactive)	> 100 µM (inactive)	42.3 µM (inactive)	> 100 µM (inactive)	> 60.1 µM (inactive)	> 52.8 µM (inactive)	> 79.1 µM (inactive)	48.6 µM (inactive)	> 91.4 µM (inactive)	33.7 µM	44.6 µM (inactive)	> 100 µM (inactive)	59.7 µM (inactive)	> 100 µM (inactive)	–
CCCCOC(=O)C(O)Cc1ccoc1 (centres undefined)	> 100 µM (inactive)	> 100 µM (inactive)	–	> 100 µM (inactive)	> 100 µM (inactive)	> 100 µM (inactive)	> 100 µM (inactive)	> 100 µM (inactive)	> 100 µM (inactive)	> 100 µM (inactive)	> 100 µM (inactive)	> 100 µM (inactive)	> 100 µM (inactive)	> 100 µM	> 100 µM (inactive)	> 100 µM (inactive)	> 100 µM (inactive)	> 100 µM (inactive)	–
COc1ccc(CNc2nc(NCc3ccc(OC)c(OC)c3)nc(NC3CCCCC3)n2)cc1	0.531 µM (active)	> 100 µM (inactive)	> 100 µM (inactive)	1.69 µM (inactive)	4.57 µM (inactive)	4.88 µM (inactive)	3.4 µM (inactive)	2.49 µM (inactive)	–	6.18 µM (inactive)	10.4 µM (inactive)	5.64 µM (inactive)	4.26 µM (inactive)	0.731 µM	2.3 µM (inactive)	> 100 µM (inactive)	5.22 µM (inactive)	3.44 µM (inactive)	> 100 µM (inactive)
CCNC(=S)NNC(=O)c1ccccc1Nc1ccccc1C(=O)NNC(=S)NCC	> 100 µM (inactive)	> 100 µM (inactive)	–	> 100 µM (inactive)	> 100 µM (inactive)	> 100 µM (inactive)	> 100 µM (inactive)	> 100 µM (inactive)	–	> 100 µM (inactive)	> 100 µM (inactive)	> 100 µM (inactive)	> 100 µM (inactive)	> 100 µM	> 100 µM (inactive)	> 100 µM (inactive)	> 100 µM (inactive)	> 100 µM (inactive)	> 100 µM (inactive)
Cn1cnc([N+](=O)[O-])c1SCC(=O)O	> 100 µM (inactive)	> 100 µM (inactive)	> 100 µM (inactive)	> 100 µM (inactive)	> 100 µM (inactive)	> 100 µM (inactive)	> 100 µM (inactive)	> 100 µM (inactive)	> 100 µM (inactive)	> 100 µM (inactive)	> 100 µM (inactive)	> 100 µM (inactive)	> 100 µM (inactive)	> 100 µM	> 100 µM (inactive)	> 100 µM (inactive)	–	> 100 µM (inactive)	> 100 µM (inactive)
Cc1ccc2c(=O)[nH]sc2c1	14.5 µM (inactive)	17.9 µM (inactive)	18.4 µM (inactive)	2.38 µM (inactive)	15.4 µM (inactive)	94 µM (inactive)	88.1 µM (inactive)	21.5 µM (inactive)	64.1 µM (inactive)	7.83 µM (inactive)	14.9 µM (inactive)	3.72 µM (inactive)	37.7 µM (inactive)	14.6 µM	17.1 µM (inactive)	> 100 µM (inactive)	3.98 µM (inactive)	14.8 µM (inactive)	–
CC(O)CCCCC(O)CCC[C@H](O)[C@H]1CCC([C@H]2CCC([C@@H](O)CCCCCCCCCCCCC3=C[C@H](C)OC3=O)O2)O1 (some centres undefined)	9.18 µM (inactive)	13.5 µM (inactive)	9.33 µM (inactive)	7.64 µM (inactive)	11.2 µM (inactive)	11.4 µM (inactive)	12 µM (inactive)	12.3 µM (inactive)	–	12.2 µM (inactive)	8.15 µM (inactive)	14.4 µM (inactive)	8.77 µM (inactive)	14.7 µM	10.9 µM (inactive)	11.7 µM (inactive)	3.9 µM (inactive)	10.8 µM (inactive)	11.4 µM (inactive)
CSc1nn(C)cc2nc(C)nc1-2	> 100 µM (inactive)	> 100 µM (inactive)	> 100 µM (inactive)	–	> 100 µM (inactive)	> 100 µM (inactive)	> 100 µM (inactive)	> 100 µM (inactive)	> 100 µM (inactive)	> 100 µM (inactive)	> 100 µM (inactive)	> 100 µM (inactive)	> 100 µM (inactive)	> 100 µM	> 100 µM (inactive)	–	> 100 µM (inactive)	> 100 µM (inactive)	–
CC(C)C(NC(=O)OCC1c2ccccc2-c2ccccc21)C(=O)NC(CCC(=O)OC(C)(C)C)C(=O)OC(C)(C)C (centres undefined) (Fmoc-Val-Glu(OtBu)-OtBu; configuration not given here)	> 100 µM (inactive)	> 100 µM (inactive)	> 100 µM (inactive)	> 45.1 µM (inactive)	> 100 µM (inactive)	> 100 µM (inactive)	> 100 µM (inactive)	> 100 µM (inactive)	58.5 µM (inactive)	> 31.6 µM (inactive)	> 100 µM (inactive)	> 100 µM (inactive)	–	> 100 µM	> 76.9 µM (inactive)	> 100 µM (inactive)	4.21 µM (inactive)	7.59 µM (inactive)	> 42 µM (inactive)
Oc1cc(-c2cccc(Cl)c2)nc2ncccc12	< 0.01 µM (active)	0.183 µM (active)	84.3 µM (inactive)	0.0474 µM (active)	7.33 µM (inactive)	–	0.644 µM (active)	0.084 µM (active)	0.53 µM (active)	0.141 µM (active)	–	0.249 µM (active)	0.197 µM (active)	0.0489 µM	0.0577 µM (active)	0.163 µM (active)	0.0545 µM (active)	0.106 µM (active)	21 µM (inactive)
Clc1ccc2c(NCCCC/N=C/c3ccccc3)ccnc2c1	12.6 µM (inactive)	15 µM (inactive)	12.3 µM (inactive)	11.8 µM (inactive)	13.4 µM (inactive)	13 µM (inactive)	20.7 µM (inactive)	11.6 µM (inactive)	3.01 µM (inactive)	5.69 µM (inactive)	15.5 µM (inactive)	9.16 µM (inactive)	11.8 µM (inactive)	17.8 µM	–	10.1 µM (inactive)	2.82 µM (inactive)	11 µM (inactive)	5.52 µM (inactive)
COc1cc(C(C)=O)cc(C(=O)N(C(C)C)C(C)C)c1[Si](C)(C)C	> 100 µM (inactive)	> 100 µM (inactive)	> 100 µM (inactive)	34.8 µM (inactive)	> 100 µM (inactive)	–	> 100 µM (inactive)	> 100 µM (inactive)	> 100 µM (inactive)	–	–	> 100 µM (inactive)	> 100 µM (inactive)	> 100 µM	> 100 µM (inactive)	28.9 µM (inactive)	79.6 µM (inactive)	> 100 µM (inactive)	99.3 µM (inactive)
N#CC1C(=O)SC2c3ccccc3C(=O)c3ccccc3C12 (centres undefined)	> 10 µM (inactive)	> 10 µM (inactive)	> 10 µM (inactive)	–	> 10 µM (inactive)	> 10 µM (inactive)	> 10 µM (inactive)	> 10 µM (inactive)	> 10 µM (inactive)	> 10 µM (inactive)	> 10 µM (inactive)	> 10 µM (inactive)	> 10 µM (inactive)	> 10 µM	> 10 µM (inactive)	> 10 µM (inactive)	> 10 µM (inactive)	> 10 µM (inactive)	–
O=C(O)c1ccc(Nc2nc3ccccc3nc2-c2cccs2)cc1	> 100 µM (inactive)	> 100 µM (inactive)	> 100 µM (inactive)	91.4 µM (inactive)	32.1 µM (inactive)	> 100 µM (inactive)	> 100 µM (inactive)	50.7 µM (inactive)	47 µM (inactive)	> 100 µM (inactive)	92.5 µM (inactive)	71.9 µM (inactive)	–	68.7 µM	65.5 µM (inactive)	> 100 µM (inactive)	> 100 µM (inactive)	95.9 µM (inactive)	68.2 µM (inactive)
O=C(O)C[n+]1cn(NC(=O)Cc2ccccc2)cn1	> 10 µM (inactive)	> 10 µM (inactive)	> 10 µM (inactive)	> 10 µM (inactive)	> 10 µM (inactive)	> 10 µM (inactive)	> 10 µM (inactive)	0.158 µM (active)	> 10 µM (inactive)	> 10 µM (inactive)	7.16 µM (inactive)	> 10 µM (inactive)	–	> 10 µM	0.664 µM (active)	> 10 µM (inactive)	> 10 µM (inactive)	> 10 µM (inactive)	> 10 µM (inactive)
S=C1NC2=C(COc3ccccc32)C(c2ccc(Cl)cc2)N1 (centres undefined)	24 µM (inactive)	21.9 µM (inactive)	21.2 µM (inactive)	–	21.1 µM (inactive)	16.3 µM (inactive)	19.9 µM (inactive)	21.6 µM (inactive)	18.1 µM (inactive)	2.54 µM (inactive)	17.1 µM (inactive)	19.2 µM (inactive)	15.3 µM (inactive)	–	17.4 µM (inactive)	19.6 µM (inactive)	12.8 µM (inactive)	> 10 µM (inactive)	> 10 µM (inactive)
